Assay results published in the NIST ThermoML archive (doi:10.1021/je800497u).

Assay: xn = mol fraction of the nth substance listed
Settings: 101 kPa, Liquid

CCCCCCCCCCCO [1-undecanol] + CCCCCCCCCO
Settings	mass density, 293.15 K [kg/m3]	mass density, 298.15 K [kg/m3]	viscosity, 293.15 K [mPa·s]	viscosity, 298.15 K [mPa·s]
x2 = 0	832.5	829	17.18	14.02
x2 = 0.1177	831.4	827.9	16.86	13.84
x2 = 0.248	830.8	827.4	16.21	13.3
x2 = 0.3116	830.5	827.1	15.57	12.72
x2 = 0.4007	830.2	826.8	15.49	12.68
x2 = 0.5017	829.8	826.4	14.66	12.03
x2 = 0.6004	829.4	826	13.83	11.33
x2 = 0.6921	829	825.6	13.5	11.12
x2 = 0.7943	828.6	825.2	12.79	10.55
x2 = 0.8915	828.1	824.7	12.06	9.982

CCCO [propan-1-ol] + CCCCCO
x1 = 1
Settings	mass density [kg/m3]	viscosity [mPa·s]
293.15 K	803.5	2.272
298.15 K	799.6	1.966

CCCCCO [pentan-1-ol] + CCCCCCCCCCCO
x1 = 1
Settings	mass density [kg/m3]	viscosity [mPa·s]
293.15 K	814.6	4.029
298.15 K	811	3.494

CCCCCCCCCCCO [1-undecanol] + CCCCCCCO
Settings	mass density, 293.15 K [kg/m3]	mass density, 298.15 K [kg/m3]	viscosity, 293.15 K [mPa·s]	viscosity, 298.15 K [mPa·s]
x2 = 0	832.5	829	17.18	14.02
x2 = 0.1245	830.7	827.3	16.37	13.36
x2 = 0.2254	830	826.6	14.96	12.26
x2 = 0.2988	829.4	826	13.79	11.3
x2 = 0.4142	828.4	825	12.93	10.66
x2 = 0.5086	827.6	824.2	11.83	9.79
x2 = 0.5895	826.8	823.4	10.82	8.971
x2 = 0.6993	825.7	822.3	9.924	8.253
x2 = 0.7866	824.8	821.3	8.997	7.511
x2 = 0.8888	823.6	820.2	8.005	6.711

CCCCCO [pentan-1-ol] + CCCCCCCCCO
x1 = 1
Settings	mass density [kg/m3]	viscosity [mPa·s]
293.15 K	814.6	4.029
298.15 K	811	3.494

CCCCCO [pentan-1-ol] + CCCO
Settings	mass density, 293.15 K [kg/m3]	mass density, 298.15 K [kg/m3]	viscosity, 293.15 K [mPa·s]	viscosity, 298.15 K [mPa·s]
x2 = 0	814.6	811	4.029	3.494
x2 = 0.0959	813.7	810.1	3.825	3.325
x2 = 0.2143	812.8	809.1	3.584	3.126
x2 = 0.2969	812	808.4	3.446	3.008
x2 = 0.4097	810.9	807.2	3.214	2.828
x2 = 0.5053	809.9	806.2	3.072	2.695
x2 = 0.5963	809	805.2	2.908	2.537
x2 = 0.6924	807.8	804	2.758	2.402
x2 = 0.7892	806.6	802.8	2.582	2.283
x2 = 0.8797	805.4	801.5	2.442	2.126

CCCCCCCCCO [nonan-1-ol] + CCCCCO
Settings	mass density, 293.15 K [kg/m3]	mass density, 298.15 K [kg/m3]	viscosity, 293.15 K [mPa·s]	viscosity, 298.15 K [mPa·s]
x2 = 0	827.9	824.4	11.68	9.671
x2 = 0.1155	826.6	823.1	10.72	8.891
x2 = 0.2155	825.6	822.2	9.71	8.083
x2 = 0.3161	824.5	821.1	8.734	7.313
x2 = 0.4052	823.6	820.1	8.071	6.815
x2 = 0.5066	822.4	818.9	7.27	6.128
x2 = 0.6079	821	817.5	6.582	5.55
x2 = 0.7036	819.6	816.1	5.898	5.017
x2 = 0.7935	818.2	814.7	5.192	4.473
x2 = 0.8913	816.6	813	4.631	3.976

CCCCCCCO [heptan-1-ol] + CCCCCO
Settings	mass density, 293.15 K [kg/m3]	mass density, 298.15 K [kg/m3]	viscosity, 293.15 K [mPa·s]	viscosity, 298.15 K [mPa·s]
x2 = 0	822.2	818.7	7.104	5.993
x2 = 0.123	821.4	818	6.696	5.692
x2 = 0.2117	820.8	817.4	6.374	5.408
x2 = 0.3131	820.2	816.7	6.079	5.158
x2 = 0.4177	819.4	815.9	5.758	4.899
x2 = 0.5088	818.8	815.3	5.421	4.652
x2 = 0.5897	818.2	814.7	5.177	4.431
x2 = 0.6996	817.3	813.8	4.887	4.189
x2 = 0.7885	816.5	812.9	4.651	3.997
x2 = 0.8909	815.6	812	4.287	3.717

CCCCCCCCCO [nonan-1-ol] + CCCCCCCCCCCO
x1 = 1
Settings	mass density [kg/m3]	viscosity [mPa·s]
293.15 K	827.9	11.68
298.15 K	824.4	9.671

CCCO [propan-1-ol] + CCCCCCCCCO
x1 = 1
Settings	mass density [kg/m3]	viscosity [mPa·s]
293.15 K	803.5	2.272
298.15 K	799.6	1.966
